Test results reported in article PMC9516332 (Frontiers in Oncology, 2022).
Read-outs that look alike come from different tables or passages of the source.

Tests used:
Experiment in all cases: Kinase panel profiling at 1 µmol/L (MSA or IMAP), percentage inhibition
Type in all cases: biochemical
[1] = target: panel of 255 wild-type kinases (Homo sapiens, UniProt O96013); details: PAK4; 1 µmol/L single concentration; read-out: %-inhibition, PAK4
[2] = target: panel of 255 wild-type kinases (Homo sapiens, UniProt P16591); details: kinase FER; 1 µmol/L single concentration; read-out: %-inhibition at 1 µmol/L, FER
[3] = target: panel of 255 wild-type kinases (Homo sapiens, UniProt P35968); details: read-out: %-inhibition at 1 µmol/L, KDR
[4] = target: T1, panel of 255 wild-type kinases (Homo sapiens, UniProt P42680); details: kinase TEC; 1 µmol/L single concentration; read-out: %-inhibition at 1 µmol/L, TEC
T1 sequence (P42680 1-631): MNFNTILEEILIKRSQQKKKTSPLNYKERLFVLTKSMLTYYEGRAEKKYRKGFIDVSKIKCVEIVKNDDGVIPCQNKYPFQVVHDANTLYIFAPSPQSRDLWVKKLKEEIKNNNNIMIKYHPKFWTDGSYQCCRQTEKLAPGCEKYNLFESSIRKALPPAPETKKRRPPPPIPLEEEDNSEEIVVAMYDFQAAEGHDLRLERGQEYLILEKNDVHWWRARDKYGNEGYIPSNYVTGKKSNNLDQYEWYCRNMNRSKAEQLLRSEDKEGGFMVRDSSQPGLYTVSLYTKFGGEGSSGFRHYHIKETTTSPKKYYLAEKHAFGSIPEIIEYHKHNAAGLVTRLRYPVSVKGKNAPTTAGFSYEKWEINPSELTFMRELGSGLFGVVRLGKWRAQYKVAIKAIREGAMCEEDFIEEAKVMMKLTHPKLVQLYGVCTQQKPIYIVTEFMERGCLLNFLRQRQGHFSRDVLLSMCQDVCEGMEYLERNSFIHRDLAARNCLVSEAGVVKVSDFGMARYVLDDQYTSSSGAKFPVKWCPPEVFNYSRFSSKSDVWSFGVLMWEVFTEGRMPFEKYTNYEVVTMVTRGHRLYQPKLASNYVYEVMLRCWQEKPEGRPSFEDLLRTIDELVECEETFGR

[5] = target: T2, panel of 255 wild-type kinases (Homo sapiens, UniProt P51955); details: NEK2; 1 µmol/L single concentration; read-out: %-inhibition, NEK2
T2 sequence (P51955 1-445): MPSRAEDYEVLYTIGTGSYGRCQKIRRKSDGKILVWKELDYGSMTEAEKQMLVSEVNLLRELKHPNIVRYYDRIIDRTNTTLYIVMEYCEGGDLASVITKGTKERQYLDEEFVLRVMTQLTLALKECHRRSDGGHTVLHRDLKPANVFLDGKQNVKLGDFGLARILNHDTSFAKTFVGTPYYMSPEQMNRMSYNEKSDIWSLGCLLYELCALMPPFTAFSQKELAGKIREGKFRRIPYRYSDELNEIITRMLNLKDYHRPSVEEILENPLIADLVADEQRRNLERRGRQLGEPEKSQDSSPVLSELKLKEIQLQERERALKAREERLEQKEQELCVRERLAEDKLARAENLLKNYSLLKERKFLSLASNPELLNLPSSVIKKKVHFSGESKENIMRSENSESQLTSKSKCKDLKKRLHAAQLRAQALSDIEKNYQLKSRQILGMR

[6] = target: panel of 255 wild-type kinases (Homo sapiens, UniProt Q00526); details: CDK3/CycE1 kinase assay; 1 µmol/L single concentration; read-out: %-inhibition CDK3/CycE1
[7] = target: panel of 255 wild-type kinases (Homo sapiens, UniProt Q13555); details: CaMK2γ kinase assay; 1 µmol/L single concentration; read-out: %-inhibition CaMK2γ
[8] = target: panel of 255 wild-type kinases (Homo sapiens, UniProt Q14680); details: MELK; 1 µmol/L single concentration; read-out: %-inhibition, MELK
[9] = target: panel of 255 wild-type kinases (Homo sapiens, UniProt Q16816); details: kinase PHKG1; 1 µmol/L single concentration; read-out: %-inhibition at 1 µmol/L, PHKG1
[10] = target: panel of 255 wild-type kinases (Homo sapiens, UniProt Q8N568); details: kinase DCAMKL2; 1 µmol/L single concentration; read-out: %-inhibition at 1 µmol/L, DCAMKL2
[11] = target: panel of 255 wild-type kinases (Homo sapiens, UniProt Q9BYP7); details: kinase WNK3; 1 µmol/L single concentration; read-out: %-inhibition at 1 µmol/L, WNK3
[12] = target: T3, panel of 255 wild-type kinases (Homo sapiens, UniProt Q9HBY8); details: kinase SGK2; 1 µmol/L single concentration; read-out: %-inhibition at 1 µmol/L, SGK2
T3 sequence (Q9HBY8 1-367): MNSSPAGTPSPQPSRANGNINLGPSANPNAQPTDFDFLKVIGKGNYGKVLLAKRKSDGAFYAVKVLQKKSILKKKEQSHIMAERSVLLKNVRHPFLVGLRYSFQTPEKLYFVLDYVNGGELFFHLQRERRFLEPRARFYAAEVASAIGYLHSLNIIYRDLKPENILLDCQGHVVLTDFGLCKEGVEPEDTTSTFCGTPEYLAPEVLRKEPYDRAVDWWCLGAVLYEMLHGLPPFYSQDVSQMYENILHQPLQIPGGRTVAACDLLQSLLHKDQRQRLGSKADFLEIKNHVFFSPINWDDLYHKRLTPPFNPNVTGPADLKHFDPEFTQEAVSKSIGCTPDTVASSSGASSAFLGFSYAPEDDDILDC

[13] = target: panel of 255 wild-type kinases (Homo sapiens, UniProt Q9HC98); details: NEK6; 1 µmol/L single concentration; read-out: %-inhibition, NEK6
[14] = target: panel of 255 wild-type kinases (Homo sapiens, UniProt Q9P289); details: MST4; 1 µmol/L single concentration; read-out: %-inhibition, MST4
[15] = target: panel of 255 wild-type kinases (Homo sapiens, UniProt Q9UK32); details: kinase RSK4; 1 µmol/L single concentration; read-out: %-inhibition at 1 µmol/L, RSK4
[16] = kinase KDR, 1 µmol/L single concentration

| SMILES | inhibition at 1 µM [1] [%] | inhibition at 1 µM [2] [%] | inhibition at 1 µM [3, 16] [%] | inhibition at 1 µM [4] [%] | inhibition at 1 µM [5] [%] | inhibition at 1 µM [6] [%] | inhibition at 1 µM [7] [%] | inhibition at 1 µM [8] [%] | inhibition at 1 µM [9] [%] | inhibition at 1 µM [10] [%] | inhibition at 1 µM [11] [%] | inhibition at 1 µM [12] [%] | inhibition at 1 µM [13] [%] | inhibition at 1 µM [14] [%] | inhibition at 1 µM [15] [%] | inhibition at 1 µM [3] [%] |
| --- | --- | --- | --- | --- | --- | --- | --- | --- | --- | --- | --- | --- | --- | --- | --- | --- |
| CO[C@]1(C(=O)N[C@@H](C)c2ccc(-n3cc(F)cn3)nc2)CC[C@H](c2nc(C)cc(Nc3cc(C)[nH]n3)n2)CC1 [pralsetinib] | 66 | 75 | 95 | 95 | 7.4 | 42 | -3 | 3.6 | 1.67 | 1.65 | 0.505 | 11 | -0.0459 | -1.47 | 37 |  |
| CCn1c(=O)c(-c2cc(NC(=O)Nc3ccccc3)c(F)cc2Br)cc2cnc(NC)cc21 [ripretinib] | 0.34 | 32 | 111 | 5.66 | -0.18 | -4.34 | 0.397 | 30 | 1.76 | 2 | -1.09 | -5 | -4 | -0.174 | 0.401 |  |
| COc1ccc(CN2C3CC2CN(c2ccc(-c4cc(OCC(C)(C)O)cn5ncc(C#N)c45)cn2)C3)cn1 [selpercatinib] | 8 | 35 |  | 37 | 2 | 3.49 | 0.226 | 62 | 8 | 1.22 | -1.49 | 10 | 0.41 | 2.38 | 43 | 99 |
| Cn1cnc2c(F)c(Nc3ccc(Br)cc3Cl)c(C(=O)NOCCO)cc21 [selumetinib] | 4.6 | 1.22 | 2.42 | 16 | 9 | -9 | -3 | -2.6 | -0.945 | 0.902 | -1.43 | -5 | -1.5 | -0.349 | 5.4 |  |
| Cc1cc(Nc2ncnc3ccc(NC4=NC(C)(C)CO4)cc23)ccc1Oc1ccn2ncnc2c1 [tucatinib] | 5 | 1.35 | 4.29 | 18 | 2.8 | -3.48 | -5 | 0.809 | -3.62 | 3.59 | 3 | -4 | 0.486 | 3 | 0.229 |  |
